Measured values published in ChEMBL document CHEMBL1201862, “PubChem BioAssay data set” (2004).
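Cultured in 96-well plates, cells were exposed to test compound for 48 hours across five concentrations. Here, GI50 denotes the concentration required for 50% inhibition of growth.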 Activity calls are given as the source filed them. No stated cut-off is given here; in the data, active = GI50 up to about 1.1 µM and inactive = higher.

Key:
Assay in all cases: NCI anticancer screen, dose series, 48 h
786-0 = system: 786-0
A549 = system: A549
ACHN = system: ACHN
BT-549 = system: BT-549
CAKI-1 = system: CAKI-1
CCRF-CEM = system: CCRF-CEM
COLO 205 = system: COLO 205
DU-145 = system: DU-145
EKVX = system: EKVX
HCC 2998 = system: HCC 2998
HCT-116 = system: HCT-116
HCT-15 = system: HCT-15
HL-60 = system: HL-60
HOP-62 = system: HOP-62
HOP-92 = system: HOP-92
HT-29 = system: HT-29
Hs-578T = system: Hs-578T
IGROV-1 = system: IGROV-1
K562 = system: K562
KM12 = system: KM12
LOX IMVI = system: LOX IMVI
M14 = system: M14
MCF7 = system: MCF7
MDA-MB-231 = system: MDA-MB-231
MDA-MB-435 = system: MDA-MB-435
MDA-N = system: MDA-N
MOLT-4 = system: MOLT-4
Malme-3M = system: Malme-3M
NCI-H226 = system: NCI-H226
NCI-H23 = system: NCI-H23
NCI-H460 = system: NCI-H460
NCI-H522 = system: NCI-H522
NCI/ADR-RES = system: NCI/ADR-RES
OVCAR-3 = system: OVCAR-3
OVCAR-4 = system: OVCAR-4
OVCAR-5 = system: OVCAR-5
OVCAR-8 = system: OVCAR-8
PC-3 = system: PC-3
RPMI-8226 = system: RPMI-8226
RXF 393 = system: RXF 393
SF-268 = system: SF-268
SF-295 = system: SF-295
SF-539 = system: SF-539
SK-MEL-28 = system: SK-MEL-28
SK-MEL-2 = system: SK-MEL-2
SK-MEL-5 = system: SK-MEL-5
SK-OV-3 = system: SK-OV-3
SN12C = system: SN12C
SNB-19 = system: SNB-19
SNB-75 = system: SNB-75
SR = system: SR
SW-620 = system: SW-620
T47D = system: T47D
TK-10 = system: TK-10
U-251 = system: U-251
UACC-257 = system: UACC-257
UACC-62 = system: UACC-62
UO-31 = system: UO-31
A498 = system: A498

## Cc1cc(=O)n2nc(CSc3nnc(S)s3)sc2n1
786-0
  GI50: > 100 µM (inactive)
A549
  GI50: > 100 µM (inactive)
ACHN
  GI50: > 100 µM (inactive)
BT-549
  GI50: > 100 µM (inactive)
CAKI-1
  GI50: > 100 µM (inactive)
CCRF-CEM
  GI50: > 100 µM (inactive)
COLO 205
  GI50: > 100 µM (inactive)
DU-145
  GI50: > 100 µM (inactive)
EKVX
  GI50: > 100 µM (inactive)
HCC 2998
  GI50: > 100 µM (inactive)
HCT-116
  GI50: > 100 µM (inactive)
HCT-15
  GI50: > 100 µM
HL-60
  GI50: > 100 µM (inactive)
HOP-62
  GI50: > 100 µM (inactive)
HOP-92
  GI50: > 100 µM (inactive)
HT-29
  GI50: > 100 µM (inactive)
Hs-578T
  GI50: > 100 µM (inactive)
IGROV-1
  GI50: > 100 µM (inactive)
K562
  GI50: > 100 µM (inactive)
KM12
  GI50: > 100 µM (inactive)
LOX IMVI
  GI50: > 100 µM (inactive)
M14
  GI50: > 100 µM (inactive)
MCF7
  GI50: > 100 µM (inactive)
MDA-MB-231
  GI50: > 100 µM (inactive)
MDA-MB-435
  GI50: > 100 µM (inactive)
MDA-N
  GI50: > 100 µM (inactive)
MOLT-4
  GI50: > 100 µM (inactive)
Malme-3M
  GI50: > 100 µM (inactive)
NCI-H226
  GI50: > 100 µM (inactive)
NCI-H23
  GI50: > 100 µM (inactive)
NCI-H460
  GI50: > 100 µM (inactive)
NCI-H522
  GI50: > 100 µM (inactive)
NCI/ADR-RES
  GI50: > 100 µM (inactive)
OVCAR-3
  GI50: > 100 µM (inactive)
OVCAR-4
  GI50: > 100 µM (inactive)
OVCAR-5
  GI50: > 100 µM (inactive)
OVCAR-8
  GI50: > 100 µM (inactive)
PC-3
  GI50: > 100 µM (inactive)
RPMI-8226
  GI50: > 100 µM (inactive)
RXF 393
  GI50: > 100 µM (inactive)
SF-268
  GI50: > 100 µM (inactive)
SF-295
  GI50: > 100 µM (inactive)
SF-539
  GI50: > 100 µM (inactive)
SK-MEL-28
  GI50: > 100 µM (inactive)
SK-MEL-2
  GI50: > 100 µM (inactive)
SK-MEL-5
  GI50: > 100 µM (inactive)
SK-OV-3
  GI50: > 100 µM (inactive)
SN12C
  GI50: > 100 µM (inactive)
SNB-19
  GI50: > 100 µM (inactive)
SNB-75
  GI50: > 100 µM (inactive)
SR
  GI50: > 100 µM (inactive)
SW-620
  GI50: > 100 µM (inactive)
T47D
  GI50: > 100 µM (inactive)
TK-10
  GI50: > 100 µM (inactive)
U-251
  GI50: > 100 µM (inactive)
UACC-257
  GI50: > 100 µM (inactive)
UACC-62
  GI50: > 100 µM (inactive)
UO-31
  GI50: > 100 µM (inactive)

## O=C(O)Cc1ccc2c(c1)/C(=C1/Nc3ccccc3C1=O)C(=O)N2
786-0
  GI50: 27.5 µM (inactive)
A498
  GI50: 31.7 µM (inactive)
A549
  GI50: 80.9 µM (inactive)
ACHN
  GI50: 32.5 µM (inactive)
BT-549
  GI50: 44.5 µM (inactive)
CAKI-1
  GI50: 24.8 µM (inactive)
CCRF-CEM
  GI50: 34.4 µM (inactive)
COLO 205
  GI50: 35.1 µM (inactive)
DU-145
  GI50: 49.9 µM (inactive)
EKVX
  GI50: 26.2 µM (inactive)
HCC 2998
  GI50: 36.5 µM (inactive)
HCT-116
  GI50: 24 µM (inactive)
HCT-15
  GI50: 27.6 µM
HOP-62
  GI50: 51.8 µM (inactive)
HT-29
  GI50: 38.8 µM (inactive)
Hs-578T
  GI50: 27.8 µM (inactive)
IGROV-1
  GI50: 0.355 µM (active)
K562
  GI50: 19.2 µM (inactive)
KM12
  GI50: 29.2 µM (inactive)
LOX IMVI
  GI50: 20 µM (inactive)
M14
  GI50: 36.6 µM (inactive)
MCF7
  GI50: 10.8 µM (inactive)
MDA-MB-231
  GI50: > 100 µM (inactive)
MDA-MB-435
  GI50: 36.1 µM (inactive)
MDA-N
  GI50: 38.4 µM (inactive)
MOLT-4
  GI50: 25.8 µM (inactive)
Malme-3M
  GI50: 27.4 µM (inactive)
NCI-H226
  GI50: 60.8 µM (inactive)
NCI-H23
  GI50: 39.6 µM (inactive)
NCI-H460
  GI50: 56.2 µM (inactive)
NCI-H522
  GI50: 35 µM (inactive)
NCI/ADR-RES
  GI50: > 100 µM (inactive)
OVCAR-3
  GI50: 14.1 µM (inactive)
OVCAR-4
  GI50: 21.9 µM (inactive)
OVCAR-5
  GI50: > 100 µM (inactive)
OVCAR-8
  GI50: 32 µM (inactive)
PC-3
  GI50: 28.6 µM (inactive)
RPMI-8226
  GI50: 27.9 µM (inactive)
RXF 393
  GI50: 17.2 µM (inactive)
SF-268
  GI50: 58.2 µM (inactive)
SF-295
  GI50: 80.5 µM (inactive)
SK-MEL-28
  GI50: 54.3 µM (inactive)
SK-MEL-2
  GI50: 40.9 µM (inactive)
SK-MEL-5
  GI50: 20.7 µM (inactive)
SK-OV-3
  GI50: 23.4 µM (inactive)
SN12C
  GI50: 56.1 µM (inactive)
SNB-19
  GI50: 66.2 µM (inactive)
SNB-75
  GI50: 26.1 µM (inactive)
SR
  GI50: 21.9 µM (inactive)
SW-620
  GI50: 46.2 µM (inactive)
T47D
  GI50: 7.71 µM (inactive)
TK-10
  GI50: > 100 µM (inactive)
U-251
  GI50: 39.6 µM (inactive)
UACC-257
  GI50: 32.3 µM (inactive)
UACC-62
  GI50: 24.4 µM (inactive)
UO-31
  GI50: 49 µM (inactive)
